# Reference: US20180064710A1, “ANTIFUNGAL TREATMENT OF PSORIASIS” (Gerbe Labs Inc., priority 2016, published 2018)
# Read-outs that look alike come from different tables or passages of the source.
# Experiments:
# Type in all cases: cell-based
# [1] = tested on: Aspergillus fumigatus + Candida albicans co-culture; experiment: Broth microdilution MIC assay, co-culture of spores 1:1
# Experimental: Broth Microdilution Minimal Inhibitory Concentration (MIC) assays were performed to obtain the MIC values for Itraconazole and Ketoconazole with an antibiotic (Vancomycin or Tobramycin or Amikacin) against the two fungal strains.
# The strains were maintained as a frozen glycerol stocks at −80° C. The fungal strains were prepared by thawing a glycerol stock, streaking and growing onto Sabouraud's Dextrose Agar (SDA) plates, overnight at 35±2° C. in aerobic conditions and used for the assay.
# The completely synthetic medium RPMI-1640 (with glutamine, without bicarbonate, and with phenol red as a pH indicator) was buffered with 0.165 mol/L MOPS (3-[N-morpholino] propanesulfonic acid) buffer was used as the growth medium for the fungal strains. Overnight cultures of the fungal strains were grown on Difco™ Sabouraud's Dextrose Agar (SDA) plates at 35° C. To induce conidium and sporangiospore formation, the culture plates were transferred to incubator and grown for 5-7 days 30° C. or until good sporulation was obtained. Approximately, 10 mL of 0.85% saline containing 0.01% of Tween 80 was used to poured on to the agar plate containing conidia or sporangiospores and hyphal fragments. The suspension containing conidia or sporangiospores and hyphal fragments was aspirated and transferred to a sterile tube. This mixture was filtered to separate the spores from the vegetative cells of the fungi. The supernatant containing only fungal spores was used for all the assays. Fungal spore inoculum was prepared in RPMI-1640 (with glutamine, without bicarbonate, and with phenol red as a pH indicator) was buffered with 0.165 mol/L MOPS (3-[N-morpholino] propanesulfonic acid) buffer to a final density of 10^6 CFU/mL using a hemocytometer.
# Each MIC assay included 11 2-fold serial dilutions of the antifungal agents. Test concentrations for the test articles were tested at the following concentrations: 64 μg/mL, 32 μg/mL, 16 μg/mL, 8 μg/mL, 4 μg/mL, 2 μg/mL, 1 μg/mL, 0.5 μg/mL, 0.25 μg/mL, 0.125 μg/mL, and 0.0625 μg/mL. Broth microdilution assays were performed according to the procedures detailed in CLSI document M38-A2 (CLSI, 2008). Briefly, 2× stock solutions of test articles were prepared at 128 μg/mL. A two-fold serial dilution of the stock solution were performed. Diluted stock solutions of the fungal spores were adjusted (to be equivalent to 10^6 CFU/mL). 1× final concentration of the antifungals was obtained when they were combined with the fungal spore broth in the microtiter plate. Plates were incubated for 3-5 days at 35±2° C. in an ambient air incubator. MIC values recorded are the minimum concentration of the test articles that inhibits growth as observed by unaided eye. The MIC values was expressed in μg/mL. The assay was carried out in duplicates.
# Candida albicans = experiment: Culture sensitivity, Patient 7 fungal isolate; conditions: Patient 7 culture
# Text: (§1) The patient underwent the standard workup for CRS, sleep disorder, and nasal obstruction, plus our diagnostic skin test and sinus CT scan.
# [2] = tested on: S. aureus, a gram negative bacteria; experiment: Culture sensitivity, Patient 7 bacterial isolate; conditions: Patient 7 culture
# Text: as §1
# [3] = A. fumigatus + C. albicans co-culture, repeated MIC study (Table 4), agent alone, read-out: MIC
"MIC ([1]; A. fumigatus + C. albicans co-culture 1:1, first study (Table 3), read-out: MIC)","MIC ([1]; A. fumigatus + C. albicans co-culture, repeated MIC study (Table 4), agent alone, listed as Itraconazone)","MIC [1, 3]",Structure (SMILES),Sensitivity of cultured Candida albicans (Candida albicans),Sensitivity of cultured bacteria [2]
0.5 µg/mL,1 µg/mL,1 µg/mL,CCC(C)n1ncn(-c2ccc(N3CCN(c4ccc(OCC5COC(Cn6cncn6)(c6ccc(Cl)cc6Cl)O5)cc4)CC3)cc2)c1=O (stereo not drawn) [Itraconazole],–,–
–,–,8 µg/mL,CC(=O)N1CCN(c2ccc(OCC3COC(Cn4ccnc4)(c4ccc(Cl)cc4Cl)O3)cc2)CC1 (stereo not drawn) [Ketoconazole],sensitive,–
–,–,–,NC[C@H]1O[C@H](O[C@H]2[C@H](O)[C@@H](O[C@H]3O[C@H](CO)[C@@H](O)[C@H](N)[C@H]3O)[C@H](N)C[C@@H]2N)[C@H](N)C[C@@H]1O [tobramycin],–,sensitive
